Test results from the supplement of paper PMC10307832.

Key:
Experiment in all cases: relative viability (nuclei count vs DMSO), 5 days (fraction); higher = more cells survive
IDH-C35 + Palbociclib = compound: Cc1ccccc1C(C(=O)NC1CCCCC1)N(C(=O)Cn1ccnc1C)c1cccc(F)c1 [IDH-C35] + CC(=O)c1c(C)c2cnc(Nc3ccc(N4CCNCC4)cn3)nc2n(C2CCCC2)c1=O [Palbociclib] (partner 0.5 µM)
Summary of the method: (§1)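 Relative viability is defined as nuclei in treated wells over nuclei in vehicle wells. Duplicate plates were run and medians reported. Lung cancer cell lines in 1536-well plates were dosed by pin tool one day after seeding, with one drug or with a fixed anchor-drug dose plus five library-drug doses (not always all listed) in √10 steps, and nuclei were counted after 5 days.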

[1] = compound: CC1=C(C(=NN1)C)CC2=C(C3=C(S2)N(C(=O)N(C3=O)C)CC(C)C)C(=O)N4C[C@@H](CO4)O + CC(=O)c1c(C)c2cnc(Nc3ccc(N4CCNCC4)cn3)nc2n(C2CCCC2)c1=O [Palbociclib] (partner 0.5 µM)
Summary of the method: as §1

[2] = compound: CC1=C(C(=NN1)C)CC2=C(C3=C(S2)N(C(=O)N(C3=O)C)CC(C)C)C(=O)N4C[C@@H](CO4)O + CCNC(=O)c1noc(-c2cc(C(C)C)c(O)cc2O)c1-c1ccc(CN2CCOCC2)cc1 [Luminespib] (partner 0.01 µM)
Summary of the method: as §1

[3] = compound: CC1=C(C(=NN1)C)CC2=C(C3=C(S2)N(C(=O)N(C3=O)C)CC(C)C)C(=O)N4C[C@@H](CO4)O + NC(=O)Nc1cc(-c2cccc(F)c2)sc1C(=O)N[C@H]1CCCNC1 [AZD7762] (partner 0.2 µM)
Summary of the method: as §1

Row | Cell Line | relative viability (IDH-C35 + Palbociclib; first compound 0.08 µM) | relative viability (IDH-C35 + Palbociclib; first compound 0.253 µM) | relative viability (IDH-C35 + Palbociclib; first compound 0.8 µM) | relative viability (IDH-C35 + Palbociclib; first compound 2.53 µM) | relative viability (IDH-C35 + Palbociclib; first compound 8 µM) | relative viability ([1]; first compound 0.0025 µM) | relative viability ([1]; first compound 0.007906 µM) | relative viability ([1]; first compound 0.025 µM) | relative viability ([1]; first compound 0.07906 µM) | relative viability ([1]; first compound 0.25 µM) | relative viability ([2]; first compound 0.0025 µM) | relative viability ([2]; first compound 0.007906 µM) | relative viability ([2]; first compound 0.025 µM) | relative viability ([2]; first compound 0.07906 µM) | relative viability ([2]; first compound 0.25 µM) | relative viability ([3]; first compound 0.0025 µM) | relative viability ([3]; first compound 0.007906 µM) | relative viability ([3]; first compound 0.025 µM) | relative viability ([3]; first compound 0.07906 µM) | relative viability ([3]; first compound 0.25 µM)
1 | NCI-H1792 | 0.711 | 0.609 | 0.646 | 0.679 | 0.673 | 0.777 | 0.747 | 0.665 | 0.604 | 0.627 | 0.458 | 0.488 | 0.416 | 0.338 | 0.379 | 0.607 | 0.727 | 0.512 | 0.564 | 0.578
2 | LCLC-97TM1 | 0.192 | 0.22 | 0.213 |  | 0.27 | 0.262 | 0.266 | 0.279 | 0.196 | 0.247 | 0.611 | 0.774 | 0.889 | 0.698 | 0.801 | 0.194 | 0.326 | 0.331 | 0.28 | 0.369
3 | LCLC-103H | 0.498 | 0.483 | 0.532 | 0.518 | 0.484 | 0.426 | 0.471 | 0.508 | 0.478 | 0.443 | 0.966 | 0.885 | 0.976 | 0.939 | 1.1 | 0.793 | 0.914 | 0.768 | 0.807 | 0.749
4 | PC-3 [JPC-3] | 0.563 | 0.532 | 0.558 | 0.587 | 0.534 | 0.528 | 0.502 | 0.539 | 0.533 | 0.524 | 0.801 | 0.601 | 0.699 | 0.773 | 0.786 | 0.872 | 0.76 | 0.69 | 0.976 | 0.806
5 | BEN | 0.433 | 0.514 | 0.466 | 0.481 | 0.463 | 0.448 | 0.484 | 0.471 | 0.423 | 0.502 | 0.235 | 0.383 | 0.242 | 0.335 | 0.325 | 0.637 | 0.631 | 0.599 | 0.51 | 0.646
6 | NCI-H1666 | 0.678 | 0.674 | 0.607 | 0.682 | 0.645 | 0.702 | 0.641 | 0.734 | 0.591 | 0.636 | 0.991 | 1 | 1.06 | 1.04 | 1.1 | 0.741 | 0.859 | 0.812 | 0.787 | 1.01
7 | LC-2-ad | 0.527 | 0.476 | 0.531 | 0.49 | 0.494 | 0.46 | 0.518 | 0.456 | 0.467 | 0.55 | 0.967 | 1.13 | 0.968 | 1.01 | 1.17 | 0.892 | 0.83 | 0.84 | 0.856 | 0.851
8 | ChaGo-K-1 | 0.921 | 0.907 | 0.92 | 0.898 | 0.983 | 0.956 | 0.937 | 0.943 | 0.878 | 0.931 | 0.671 | 0.597 | 0.583 | 0.677 | 0.546 | 0.938 | 0.919 | 0.855 | 0.823 | 0.889
9 | NCI-H1975 | 0.642 | 0.653 | 0.606 | 0.67 | 0.56 | 0.624 | 0.706 | 0.66 | 0.623 | 0.699 | 0.237 | 0.294 | 0.168 | 0.16 | 0.147 | 0.709 | 0.691 | 0.735 | 0.723 | 0.771
10 | NCI-H1993 | 0.649 | 0.504 | 0.654 | 0.617 | 0.666 | 0.689 | 0.731 | 0.709 | 0.597 | 0.75 | 0.727 | 0.706 | 0.765 | 0.65 | 0.749 | 0.893 | 0.656 | 0.596 | 0.674 | 0.696
11 | RERF-LC-KJ | 1.08 | 1.03 | 0.991 | 1.1 | 1.09 | 1.12 | 1.11 | 1.04 | 1.06 | 1.12 | 1.25 | 1.36 | 1.22 | 1.16 | 1.32 | 1.01 | 1.16 | 0.888 | 1.1 | 1.01
12 | NCI-H23 | 0.55 | 0.494 | 0.43 | 0.525 | 0.538 | 0.508 | 0.639 | 0.559 | 0.518 | 0.665 | 0.242 |  |  | 0.23 | 0.219 | 0.23 | 0.208 | 0.298 | 0.271 | 0.31
13 | EMC-BAC-2 | 0.522 | 0.505 | 0.563 | 0.543 | 0.497 | 0.549 | 0.543 | 0.499 | 0.569 | 0.549 | 1.17 | 1.23 | 1.2 | 1.32 | 1.29 | 1.21 | 1.2 | 1.07 | 1.19 | 1.01
14 | NCI-H2405 | 0.538 | 0.512 | 0.525 | 0.561 | 0.525 | 0.529 | 0.531 | 0.54 | 0.473 | 0.563 | 0.778 | 0.849 |  | 0.706 | 0.684 | 0.793 | 0.778 | 0.573 | 0.69 | 0.678
15 | NCI-H358 | 0.134 | 0.131 | 0.146 | 0.148 | 0.123 | 0.144 | 0.132 | 0.12 | 0.121 | 0.14 | 0.342 | 0.471 | 0.401 | 0.447 | 0.308 | 0.571 | 0.623 | 0.431 | 0.643 | 0.594
16 | NCI-H1944 | 0.376 | 0.345 | 0.338 | 0.317 | 0.323 | 0.328 | 0.335 | 0.337 | 0.314 | 0.363 | 0.81 | 1.11 | 0.714 | 0.698 | 0.801 | 0.531 | 0.524 | 0.466 | 0.478 | 0.51
